Test results published in patent US10273227B2, “C5-anilinoquinazoline compounds and their use in treating cancer” (AstraZeneca AB, priority 2017, dated 2019).

What was measured:
Format in all cases: cell-based
[1] = biological target: T1, Ba/F3-V654A (KIT exon11 deletion (557-558) and secondary mutation V654A) (Homo sapiens, UniProt P10721, DEL557-558/V654A); assay: MTS viability assay, Ba/F3 expressing KIT exon11 deletion (557-558) and V654A; settings: 72 h incubation, top concentration 10 uM
T1 construct: expressed in transfected cells; host or cells: Ba/F3 cells, lentiviral transduction (pLVX-IRES Puro)
Description: (§1) Exponentially grown Ba/F3 cells (1.5×10^6 cells in 2 ml medium) were infected with 2 ml of viral suspension in a 6-well plate in the presence of mIL-3 (10 ng/ml) and polybrene (4 μg/ml) (Sigma Aldrich, St. Louis, Mo.) and incubated for 24 h. After 24 h, the cells were centrifuged and the viral supernatant was discarded. The cells were then re-suspended in fresh medium and allowed to recover for another day. The following day, the cells were seeded in complete medium without murine IL-3. After a week or two, when cells started proliferating, a selection was carried out by gradually increasing the puromycin concentration to 0.5 ug/ml. Once the cells were growing exponentially in puromycin, batches of cells were frozen down for banking.
(§2) The impact of KIT inhibitors on the viability of Ba/F3 expressing KIT mutations was determined using an MTS assay, which is a colorimetric sensitive quantification of viable cells in proliferation and cytotoxicity assay. In the MTS assay […] in the presence of phenazine methosulfate (PMS) was used. The mitochondrial reductase forms a formazan which absorbs at 490 nm. Cells in exponential growth phase were added to 384-well plates containing pre-dispensed compounds (top concentration 10 uM, 10-point curve). The cells were incubated for 72 h at 37° C. and 5% CO2. After 72 h, MTS reagent was added to the plates and incubated an additional 2 h at 37° C. before measuring the absorbance at 490 nm on a Tecan microplate reader using Magellan Software (Tecan Trading AG, Switzerland).
(§3) The absorbances were normalized as follows: (Read-Day0 control)/(Day3 control−Day0 control)*100. The GI50 values were generated using Genedata Screener software (Genedata Lexington, Mass.). A non-linear regression with constraints for top and bottom between 100 and −100 and no constraint on the Hill coefficient was used to generate GI50 values. The GI50 values reported below are the calculated mean result of at least 3 biological replicates across all the cell lines tested.

[2] = test system: Ba/F3-Parental; assay: MTS viability assay, Ba/F3 parental cells; settings: Mus musculus, BaF3, 72 h incubation, top concentration 10 uM
Description: as §1, §2, §3

[3] = test system: TEL-KDR (KDR (K790-V1356) fused to the C-terminus of Tel); assay: MTS viability assay, Ba/F3 expressing Tel-KDR; settings: 72 h incubation, top concentration 10 uM
Description: Tel-KDR myc was cloned into pBCS2004, a retroviral vector, wherein KDR (K790-V1356) is fused to the C-terminus of Tel. Retroviral particles were generated in HEK293T cells. The Tel-KDR plasmid was co-transfected with helper viruses (gag-Pol and VSV-G) into HEK293T cells using calcium phosphate and the virus was harvested 72 h after transfection.
as §1, §2, §3

[4] = biological target: T2, Ba/F3-D816H (KIT exon11 deletion (557-558) and secondary mutation D816H) (Homo sapiens, UniProt P10721, D816H/DEL557-558); assay: MTS viability assay, Ba/F3 expressing KIT exon11 deletion (557-558) and D816H; settings: 72 h incubation, top concentration 10 uM
T2 construct: expressed in transfected cells; host or cells: Ba/F3 cells, lentiviral transduction (pLVX-IRES Puro)
Description: as §1, §2, §3

[5] = biological target: T3, Ba/F3-T670I (KIT exon11 deletion (557-558) and secondary mutation T670I) (Homo sapiens, UniProt P10721, DEL557-558/T670I); assay: MTS viability assay, Ba/F3 expressing KIT exon11 deletion (557-558) and T670I; settings: 72 h incubation, top concentration 10 uM
T3 construct: expressed in transfected cells; host or cells: Ba/F3 cells, lentiviral transduction (pLVX-IRES Puro)
Description: as §1, §2, §3

T2 sequence (P10721 with tags, fused parts or gaps DEL557-558/D816H): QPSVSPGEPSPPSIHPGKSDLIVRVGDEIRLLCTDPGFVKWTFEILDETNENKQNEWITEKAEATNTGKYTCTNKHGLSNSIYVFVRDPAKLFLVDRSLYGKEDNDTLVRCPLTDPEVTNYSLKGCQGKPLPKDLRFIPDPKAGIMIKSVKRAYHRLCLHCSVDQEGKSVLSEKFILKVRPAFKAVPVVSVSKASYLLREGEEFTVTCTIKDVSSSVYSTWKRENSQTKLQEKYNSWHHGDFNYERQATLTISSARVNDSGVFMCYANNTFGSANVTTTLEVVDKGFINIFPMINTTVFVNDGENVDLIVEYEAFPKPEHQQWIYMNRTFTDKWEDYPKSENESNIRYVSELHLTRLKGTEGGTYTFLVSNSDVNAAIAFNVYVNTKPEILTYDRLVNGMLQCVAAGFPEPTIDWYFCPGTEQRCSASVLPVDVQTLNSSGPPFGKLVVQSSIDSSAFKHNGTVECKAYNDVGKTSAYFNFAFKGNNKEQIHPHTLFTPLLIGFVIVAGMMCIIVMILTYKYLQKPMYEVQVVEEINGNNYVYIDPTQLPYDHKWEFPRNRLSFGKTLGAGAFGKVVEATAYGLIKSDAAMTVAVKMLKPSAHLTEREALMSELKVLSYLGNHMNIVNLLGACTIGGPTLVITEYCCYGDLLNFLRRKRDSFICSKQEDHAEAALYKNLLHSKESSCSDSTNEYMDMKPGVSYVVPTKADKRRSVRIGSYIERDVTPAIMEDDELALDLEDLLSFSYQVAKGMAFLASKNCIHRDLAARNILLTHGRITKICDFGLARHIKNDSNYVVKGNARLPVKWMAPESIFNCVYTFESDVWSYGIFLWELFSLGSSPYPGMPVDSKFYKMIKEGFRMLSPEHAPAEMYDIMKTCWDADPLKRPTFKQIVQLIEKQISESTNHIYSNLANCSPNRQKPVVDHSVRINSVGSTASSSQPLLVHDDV
T1 sequence (P10721 with tags, fused parts or gaps DEL557-558/V654A): as the sequence (P10721 with tags, fused parts or gaps DEL557-558/D816H) above, with V627A, H789D counted along it
T3 sequence (P10721 with tags, fused parts or gaps DEL557-558/T670I): as the sequence (P10721 with tags, fused parts or gaps DEL557-558/D816H) above, with T643I, H789D counted along it

Compound	GI50 [3] [µM]	Ba/F3-V654A GI50 [1] [µM]	GI50 [2] [µM]	Ba/F3-D816H GI50 [4] [µM]	Ba/F3-T670I GI50 [5] [µM]
COc1cc(OC)c2c(Nc3ccc(NC(=O)Cn4cc(C(C)C)nn4)cc3F)ncnc2c1 [Example 1, N-(4-[(5,7-dimethoxyquinazolin-4-yl)amino]-3-fluorophenyl)-2-[4-(propan-2-yl)-1H-1,2,3-triazol-1-yl]acetamide]	≥ 10	0.007	≥ 10	0.141	0.162
COc1cc2ncnc(Nc3ccc(NC(=O)Cn4cc(C(C)C)nn4)cc3)c2c(F)c1OC [Example 2, N-{4-[(5-fluoro-6,7-dimethoxyquinazolin-4-yl)amino]phenyl}-2-[4-(propan-2-yl)-1H-1,2,3-triazol-1-yl]acetamide]	2.5	0.004	≥ 10	0.022	0.049
CCOc1cc(OC2CCOCC2)cc2ncnc(Nc3ccc(NC(=O)Cn4cc(C(C)C)nn4)cc3)c12 [Example 5, N-(4-((5-Ethoxy-7-((tetrahydro-2H-pyran-4-yl)oxy)quinazolin-4-yl)amino)phenyl)-2-(4-isopropyl-1H-1,2,3-triazol-1-yl)acetamide]	6.18	0.041	1.87	0.138	0.591
CCOc1cc(OCCN(C)C)cc2ncnc(Nc3ccc(NC(=O)Cn4cc(C(C)C)nn4)cc3)c12 [Example 6, N-(4-((7-(2-(Dimethylamino)ethoxy)-5-ethoxyquinazolin-4-yl)amino)phenyl)-2-(4-isopropyl-1H-1,2,3-triazol-1-yl)acetamide]	2.66	0.013	2.05	0.063	0.091
CCOc1cc(OC)cc2ncnc(Nc3ccc(NC(=O)Cn4cc(C(C)C)nn4)cc3)c12 [Example 7, N-(4-((5-Ethoxy-7-methoxyquinazolin-4-yl)amino)phenyl)-2-(4-isopropyl-1H-1,2,3-triazol-1-yl)acetamide]	3.19	0.007	≥ 10	0.079	0.073
CCOc1cc(OCCOC)cc2ncnc(Nc3ccc(NC(=O)Cn4cc(C(C)C)nn4)cc3)c12 [Example 8, N-(4-((5-Ethoxy-7-(2-methoxyethoxy)quinazolin-4-yl)amino)phenyl)-2-(4-isopropyl-1H-1,2,3-triazol-1-yl)acetamide]	2.15	0.015	2.55	0.044	0.032
CCOc1cc(OC2COC2)cc2ncnc(Nc3ccc(NC(=O)Cn4cc(C(C)C)nn4)cc3)c12 [Example 9, N-(4-((5-Ethoxy-7-(oxetan-3-yloxy)quinazolin-4-yl)amino)phenyl)-2-(4-isopropyl-1H-1,2,3-triazol-1-yl)acetamide]	2.33	0.012	1.71	0.105	0.127
COc1cc(OC2CCOCC2)cc2ncnc(Nc3ccc(NC(=O)Cn4cc(C(C)C)nn4)cc3)c12 [Example 10, N-(4-{[5-Methoxy-7-(tetrahydro-2H-pyran-4-yloxy)quinazolin-4-yl]amino}phenyl)-2-[4-(propan-2-yl)-1H-1,2,3-triazol-1-yl]acetamide]	9.48	0.007	≥ 10	0.065	0.640

The next lines start with results.

GI50 [3] [µM]	Compound	Ba/F3-V654A GI50 [1] [µM]	GI50 [2] [µM]	Ba/F3-D816H GI50 [4] [µM]	Ba/F3-T670I GI50 [5] [µM]
2.48	COc1cc2ncnc(Nc3ccc(NC(=O)Cn4cc(C(C)C)nn4)cc3)c2c(OC)c1OC [Example 11, 2-[4-(Propan-2-yl)-1H-1,2,3-triazol-1-yl]-N-{4-[(5,6,7-trimethoxyquinazolin-4-yl)amino]phenyl}acetamide]	0.004	≥ 10	0.027	0.036
1.3	COCCOc1cc(F)c2c(Nc3ccc(NC(=O)Cn4cc(C(C)C)nn4)cc3)ncnc2c1 [Example 12, N-(4-{[5-Fluoro-7-(2-methoxyethoxy)quinazolin-4-yl]amino}phenyl)-2-[4-(propan-2-yl)-1H-1,2,3-triazol-1-yl]acetamide]	0.002	≥ 10	0.007	0.015
4.18	COc1cc(OC(C)C)cc2ncnc(Nc3ccc(NC(=O)Cn4cc(C(C)C)nn4)cc3)c12 [Example 15, N-(4-{[5-Methoxy-7-(propan-2-yloxy)quinazolin-4-yl]amino}phenyl)-2-[4-(propan-2-yl)-1H-1,2,3-triazol-1-yl]acetamide]	0.011	≥ 10	0.035	0.254
9.36	COc1cc(OC2COC2)cc2ncnc(Nc3ccc(NC(=O)Cn4cc(C(C)C)nn4)cc3)c12 [Example 16, N-(4-{[5-Methoxy-7-(oxetan-3-yloxy)quinazolin-4-yl]amino}phenyl)-2-[4-(propan-2-yl)-1H-1,2,3-triazol-1-yl]acetamide]	0.012	≥ 10	0.090	0.502
≥ 10	COc1cc(OCCN(C)C)cc2ncnc(Nc3ccc(NC(=O)Cn4cc(C(C)C)nn4)cc3)c12 [Example 17, N-[4-({7-[2-(Dimethylamino)ethoxy]-5-methoxyquinazolin-4-yl}amino)phenyl]-2-[4-(propan-2-yl)-1H-1,2,3-triazol-1-yl]acetamide]	0.020	≥ 10	0.088	0.627
6.01	CCOc1cc(OC)c2c(Nc3ccc(NC(=O)Cn4cc(C(C)C)nn4)cc3)ncnc2c1 [Example 18, N-{4-[(7-Ethoxy-5-methoxyquinazolin-4-yl)amino]phenyl}-2-[4-(propan-2-yl)-1H-1,2,3-triazol-1-yl]acetamide]	0.003	≥ 10	0.021	0.066
≥ 10	CCOc1cc(OCC)c2c(Nc3ccc(NC(=O)Cn4cc(C(C)C)nn4)cc3)ncnc2c1 [Example 19, N-{4-[(5,7-Diethoxyquinazolin-4-yl)amino]phenyl}-2-[4-(propan-2-yl)-1H-1,2,3-triazol-1-yl]acetamide]	0.007	≥ 10	0.056	0.034
3.39	COCCOc1cc(OC)c2c(Nc3ccc(NC(=O)Cn4cc(C(C)C)nn4)cc3)ncnc2c1 [Example 20, N-(4-{[5-Methoxy-7-(2-methoxyethoxy)quinazolin-4-yl]amino}phenyl)-2-[4-(propan-2-yl)-1H-1,2,3-triazol-1-yl]acetamide]	0.008	9.96	0.030	0.053
≥ 10	COc1cc(F)c2c(Nc3ccc(NC(=O)Cn4cc(C(C)C)nn4)cc3)ncnc2c1 [Example 21, N-{4-[(5-Fluoro-7-methoxyquinazolin-4-yl)amino]phenyl}-2-[4-(propan-2-yl)-1H-1,2,3-triazol-1-yl]acetamide]	0.002	≥ 10	0.025	0.068
5.35	COc1cc(OC)c2c(Nc3ccc(NC(=O)Cn4cc(C(C)C)nn4)cc3)ncnc2c1 [Example 22, N-{4-[(5,7-Dimethoxyquinazolin-4-yl)amino]phenyl}-2-[4-(propan-2-yl)-1H-1,2,3-triazol-1-yl]acetamide]	0.003	≥ 10	0.048	0.106
